Data set [1] is described as follows: Cytotoxicity against human HuCCT1 cells. The class given is functional, cell-based. The note with it: HuCCT-1.
In data set [2] the test system is HT-1080. Kind of data set: Reduction of MMP9 mRNA level in human HT1080 cells at 1 uM after 24 hrs by RT-PCR analysis relative to control. The data set is classed as functional. Further details: scale not given: the % may be the effect or the level left.
In data set [3] the test system is HT-1080. Kind of data set: Reduction of MMP2 level in human HT1080 cells after 24 to 72 hrs by gelatin zymography analysis. The class given is functional, cell-based.
In data set [4] the test system is HT-1080. Put plainly: Reduction of proMMP2 level in human HT1080 cells after 24 to 72 hrs by gelatin zymography analysis. The class given is functional, cell-based.
For data set [5], the system named is HT-1080. Kind of data set: Reduction of proMMP9 level in human HT1080 cells after 24 to 72 hrs by gelatin zymography analysis. The data set is classed as functional, cell-based.
Data set [6] has as its system HT-1080. Put plainly: Reduction of MMP9 level in human HT1080 cells after 24 to 72 hrs by gelatin zymography analysis. The data set is classed as functional, cell-based.
Data set [7] has as its target 72 kDa type IV collagenase (Homo sapiens) (UniProt P08253). Kind of data set: Inhibition of MMP2 activity in human HT1080 cells at 1 uM after 24 hrs. The data set is classed as cell-based. The note with it: HT-1080.
Data set [8] concerns the target Matrix metalloproteinase-9 (Homo sapiens) (UniProt P14780). Put plainly: Inhibition of MMP9 activity in human HT1080 cells at 1 uM after 24 hrs. The note with it: HT-1080. The class given is cell-based.
Data set [9] deals with HT-1080. Put plainly: Antiinvasive activity in human HT1080 cells assessed as reduction of cell number at 1 uM after 22 hrs by matrigel invasion assay. The class given is functional. On the set-up: scale not given: the % may be the effect or the level left.
A short description of data set [10]: (§1) Toxicity in human HT1080 cells assessed as reduction of cell growth at 1 uM after 24 hrs. The class given is cell-based, HT-1080. The note with it: HT1080 cells, read-out: Activity.
The subject of data set [11] is HT-1080. Kind of data set: Induction of apoptosis in human HT1080 cells assessed as increase in caspase-3 activity at 1 uM relative to control. The class given is functional, cell-based.
Data set [12] relates to HT-1080. Put plainly: Induction of apoptosis in human HT1080 cells assessed as increase in caspase-3 activity at 10 uM relative to control. The data set is classed as functional.
The test system of data set [13] is HT-1080. Put plainly: Cell cycle arrest in human HT1080 cells assessed as accumulation at S phase after 72 hrs using propidium iodide staining by FACS analysis. The data set is classed as functional, cell-based. For orientation: In flow cytometry, cells or beads pass a laser one at a time.
For data set [14], the system named is HT-1080. Put plainly: Induction of apoptosis in human HT1080 cells assessed as increase in caspase-3 activity at 4 uM relative to control. The class given is functional.
For data set [15], the system named is HT-1080. Put plainly: Cell cycle arrest in human HT1080 cells assessed as accumulation at G2/M phase at 10 uM after 72 hrs using propidium iodide staining by FACS analysis relative to control. The class given is functional.
Data set [16] concerns HT-1080. Put plainly: Cell cycle arrest in human HT1080 cells assessed as accumulation at G2/M phase at 4 uM after 72 hrs using propidium iodide staining by FACS analysis relative to control. The data set is classed as functional.
Data set [17] concerns HT-1080. Kind of data set: Cell cycle arrest in human HT1080 cells assessed as accumulation at G2/M phase at 1 uM after 72 hrs using propidium iodide staining by FACS analysis relative to control. The data set is classed as functional.
In data set [18] the test system is HT-1080. Put plainly: Cell cycle arrest in human HT1080 cells assessed as accumulation at S phase at 10 uM after 72 hrs using propidium iodide staining by FACS analysis relative to control. The class given is functional.
The test system of data set [19] is HT-1080. Put plainly: Cell cycle arrest in human HT1080 cells assessed as accumulation at S phase at 4 uM after 72 hrs using propidium iodide staining by FACS analysis relative to control. The data set is classed as functional.
In data set [20] the test system is HT-1080. Put plainly: Cell cycle arrest in human HT1080 cells assessed as accumulation at S phase at 1 uM after 72 hrs using propidium iodide staining by FACS analysis relative to control. The class given is functional.
For data set [21], the system named is HT-1080. Kind of data set: Cell cycle arrest in human HT1080 cells assessed as accumulation at G0/G1 phase at 10 uM after 72 hrs using propidium iodide staining by FACS analysis relative to control. The class given is functional.
Data set [22] relates to HT-1080. Kind of data set: Cell cycle arrest in human HT1080 cells assessed as accumulation at G0/G1 phase at 4 uM after 72 hrs using propidium iodide staining by FACS analysis relative to control. The data set is classed as functional.
The subject of data set [23] is HT-1080. Put plainly: Cell cycle arrest in human HT1080 cells assessed as accumulation at G0/G1 phase at 1 uM after 72 hrs using propidium iodide staining by FACS analysis relative to control. The data set is classed as functional.
Data set [24] has as its system HT-1080. Kind of data set: Cytotoxicity against human HT1080 cells assessed as growth inhibition after 72 hrs by trypan blue dye exclusion assay. The data set is classed as functional, cell-based. The note with it: HT-1080, 72 h.
Data set [25] deals with HT-1080. Put plainly: Reduction of MMP2 mRNA level in human HT1080 cells at 1 uM after 24 hrs by RT-PCR analysis relative to control. The data set is classed as functional, cell-based.
For data set [26], the system named is HT-1080. Kind of data set: Induction of RECK mRNA expression in human HT1080 cells at 1 uM after 24 hrs by RT-PCR analysis relative to control. The class given is functional.
In data set [27] the test system is HT-1080. Kind of data set: Induction of RECK protein expression in human HT1080 cells at 1 uM after 24 hrs by electrophoresis analysis relative to control. The class given is functional.
Data set [28] deals with HT-1080. Put plainly: Induction of RECK protein expression in human HT1080 cells at 4 uM after 24 hrs by electrophoresis analysis relative to control. The class given is functional.
Data set [29] concerns HT-1080. Put plainly: Induction of RECK protein expression in human HT1080 cells after 24 hrs by electrophoresis analysis relative to control. The class given is functional, cell-based.
Data set [30] relates to HT-1080. Put plainly: Cytotoxicity against human HT1080 cells assessed as growth inhibition at 4 to 10 uM after 72 hrs by trypan blue dye exclusion assay relative to control. The data set is classed as functional.
The test system of data set [31] is HT-1080. Put plainly: Cytotoxicity against human HT1080 cells. The data set is classed as functional, cell-based.
The test system of data set [32] is HT-1080. Kind of data set: Antiinvasive activity in human HT1080 cells at 50 uM. The class given is functional.
Data set [33] relates to HT-1080. The description is as §1. The class given is cell-based. Particulars: ht-1080, 24 h, 1 µM.
The test system of data set [34] is HT-1080. Put plainly: Antiinvasive activity in human HT1080 cells at 30 uM. The class given is functional.

Activity calls are given as the source filed them. No cut-off for these calls is given here. Where only a bound is given, the exact number is not on record here.

Sequence of 72 kDa type IV collagenase (Homo sapiens) (P08253 110-660 limits assumed): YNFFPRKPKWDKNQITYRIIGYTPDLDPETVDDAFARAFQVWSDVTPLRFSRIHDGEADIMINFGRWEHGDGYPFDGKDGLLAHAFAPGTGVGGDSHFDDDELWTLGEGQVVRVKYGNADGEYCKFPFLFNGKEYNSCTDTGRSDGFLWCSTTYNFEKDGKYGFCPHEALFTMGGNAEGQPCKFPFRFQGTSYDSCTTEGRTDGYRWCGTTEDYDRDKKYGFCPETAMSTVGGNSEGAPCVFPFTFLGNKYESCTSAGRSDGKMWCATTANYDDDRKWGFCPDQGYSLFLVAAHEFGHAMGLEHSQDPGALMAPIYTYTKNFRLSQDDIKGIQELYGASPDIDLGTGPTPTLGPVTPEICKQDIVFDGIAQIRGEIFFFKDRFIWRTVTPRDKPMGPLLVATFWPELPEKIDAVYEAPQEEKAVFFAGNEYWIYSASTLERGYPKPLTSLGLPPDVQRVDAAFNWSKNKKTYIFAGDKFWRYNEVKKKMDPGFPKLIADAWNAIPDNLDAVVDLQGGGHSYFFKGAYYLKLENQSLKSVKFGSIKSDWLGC
Sequence of Matrix metalloproteinase-9 (Homo sapiens) (P14780 whole entry): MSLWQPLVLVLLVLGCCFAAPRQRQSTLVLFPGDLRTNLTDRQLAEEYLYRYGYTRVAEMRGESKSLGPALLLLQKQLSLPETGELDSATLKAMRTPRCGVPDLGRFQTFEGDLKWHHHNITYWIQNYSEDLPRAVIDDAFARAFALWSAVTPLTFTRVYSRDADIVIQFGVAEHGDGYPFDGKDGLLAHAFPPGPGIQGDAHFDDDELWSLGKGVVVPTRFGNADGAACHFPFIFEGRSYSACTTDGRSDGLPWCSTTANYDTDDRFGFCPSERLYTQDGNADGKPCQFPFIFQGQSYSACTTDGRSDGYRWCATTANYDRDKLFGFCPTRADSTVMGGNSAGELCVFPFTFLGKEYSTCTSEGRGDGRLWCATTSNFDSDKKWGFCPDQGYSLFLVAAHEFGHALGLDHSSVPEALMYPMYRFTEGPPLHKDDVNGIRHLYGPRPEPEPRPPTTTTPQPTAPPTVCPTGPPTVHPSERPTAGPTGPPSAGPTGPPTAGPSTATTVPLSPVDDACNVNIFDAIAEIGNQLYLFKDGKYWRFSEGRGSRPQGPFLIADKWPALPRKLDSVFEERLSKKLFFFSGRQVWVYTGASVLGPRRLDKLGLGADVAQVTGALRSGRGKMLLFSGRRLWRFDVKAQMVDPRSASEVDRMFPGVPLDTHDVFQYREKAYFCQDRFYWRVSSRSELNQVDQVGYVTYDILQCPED

Broadly, the IC50 is the concentration that gives 50% inhibition. As for `CCCCCCCCCCCCNc1ccc(O)cc1`, the IC50 was 2 µM in data set [1]; 2.4 µM in [3]; greater than 10 µM in data set [4]; 0.9 µM in data set [5]; 0.7 µM in data set [6]; 1 µM in [24]. The Activity in data set [2] was 60%; in data set [3] it was “Dose-dependent effect”; in data set [4], “Dose-dependent effect”; in data set [5] it was “Dose-dependent effect”; in data set [6], “Dose-dependent effect”; in data set [9], 80%. Further, the Activity entry in data set [13] was “Dose-dependent effect”; in [15], 30.3%; in data set [16] it was 30.4%; in [17], 28.2%; in [18], 19.1%; in [19], 11%. Also, the Activity in [20] is 8.7%; in data set [21] it was 50.6%; in [22], 58.5%; in [23], 63.1%; in [26], 162%; in data set [27], 140%. In addition, the Activity in [28] is 175%; in [29], “Dose-dependent effect”. For the same molecule, the inhibition entry in [7] was “inactive”. This molecule also registered an inhibition in [8] of 50%. For the same molecule, the inhibition at 24 h, 1 µM in [10] amounted to 8%. The result in [11] and in [25] was inactive. Further, the “fold change (FC)” value in [12] came to 4.8; in [14], 3.2. The “growth inhibition (GI)” value in data set [30] is listed as 77%.

Regarding `COC(=O)[C@H](CCSC)NC(=O)c1ccc(CNCc2c[nH]cn2)cc1-c1ccccc1C`, in data set [31], the IC50 is greater than 50 µM.

The molecule `O=S(=O)(c1cccc2cnccc12)N1CCCNCC1` [FASUDIL] displayed an Activity in data set [32] of 26%.

On to `CC1=C(/C=C/C(C)=C/C=C/C(C)=C/C(=O)O)C(C)(C)CCC1` [TRETINOIN], for which the outcome in [2], in data set [9], in [25] and in data set [26] was inactive. Further, the inhibition result in [7] and in data set [8] was “inactive” in each case. Besides, in data set [33], the Activity entry is “Non-toxic”.

Molecule `C[C@@H](N)c1ccc(C(=O)Nc2ccncc2)cc1.Cl` registered an Activity in [34] of 50%.

Regarding `O=S(=O)(c1cccc2c(O)nccc12)N1CCCNCC1` [HYDROXYFASUDIL], the Activity in data set [32] was 50%.

Regarding `CC1=C(/C=C/C(C)=C/C=C/C(C)=C/C(=O)Nc2ccc(O)cc2)C(C)(C)CCC1` [FENRETINIDE], the result in data set [2], in data set [25] and in data set [26] was inactive. Besides, the inhibition result in data set [7] and in data set [8] was “inactive” throughout. The Activity in data set [9] was 20%. In addition, the inhibition at 24 h, 1 µM in data set [10] came to 4%.

Take `COc1cc(C2Oc3cc([C@H]4Oc5cc(O)cc(O)c5C(=O)[C@@H]4O)ccc3OC2CO)ccc1O` (some centres undefined) [SILIBININ]: it took 400 µM to reach half-maximal inhibition in data set [31] (IC50).

`O=C(CCCCCCSc1ccc2ccccc2c1)NO` had a half-maximal inhibitory concentration (IC50) in data set [31] of 3 µM.

(Values after ChEMBL document CHEMBL2417488, “Inhibitory effects of p-dodecylaminophenol on the invasiveness of human fibrosarcoma cell line HT1080” (Bioorg Med Chem, 2013).)
